{
  "source": "patent US11771704B1",
  "about": "“Methods of using rho kinase inhibitors to treat alzheimer's disease” (priority 2020, dated 2023)",
  "origin": "cited, not measured here",
  "key": {"[1]": {"conditions": "in vivo, 1-hydroxy metabolite; cited from earlier work"}, "[2]": {"tested_on": "animal model", "conditions": "in vivo; cited from earlier work"}, "[3]": {"molecular_target": "p38 mitogen-activated protein kinase (Homo sapiens, UniProt Q16539)", "sequence (Q16539 whole entry)": "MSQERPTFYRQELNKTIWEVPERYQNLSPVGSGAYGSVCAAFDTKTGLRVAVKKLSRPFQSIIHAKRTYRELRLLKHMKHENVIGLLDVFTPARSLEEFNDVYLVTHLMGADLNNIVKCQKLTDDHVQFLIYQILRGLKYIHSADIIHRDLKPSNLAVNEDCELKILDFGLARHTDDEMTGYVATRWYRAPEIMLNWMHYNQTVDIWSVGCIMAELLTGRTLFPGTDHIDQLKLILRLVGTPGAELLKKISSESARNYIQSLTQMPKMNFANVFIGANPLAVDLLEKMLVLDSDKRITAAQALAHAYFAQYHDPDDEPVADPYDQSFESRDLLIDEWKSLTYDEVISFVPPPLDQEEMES", "conditions": "cited from earlier work"}, "[4]": {"tested_on": "APP/PS1 transgenic mice", "conditions": "5 and 10 mg/kg/day intraperitoneally (70, 140 mg HED); cited from earlier work"}, "[5]": {"tested_on": "streptozotocin rats", "conditions": "5 and 10 mg/kg/day intraperitoneally (226 mg HED); cited from earlier work"}, "[6]": {"tested_on": "triple transgenic mice", "conditions": "10 or 12 months of age, in water at 30 mg/kg and 100 mg/kg; cited from earlier work"}, "[7]": {"tested_on": "triple transgenic mouse model (APP Swedish, MAPT P301L, and PSEN1 M146V)", "conditions": "10 mg/kg/day intraperitoneally (57 mg HED); cited from earlier work"}},
  "data": [
    {"smiles": "O=S(=O)(c1cccc2c(O)nccc12)N1CCCNCC1", "note": "[M3, hydroxyfasudil]", "values": [
      {"measurement": "half-life", "setting": "[1]", "result": "about 8 hours"}
    ]},
    {"smiles": "O=c1ncn2nc(Sc3ccc(F)cc3F)ccc2c1-c1c(Cl)cccc1Cl", "note": "[Neflamapimod]", "values": [
      {"measurement": "efficacy in an animal model", "setting": "[2]", "result": "showed efficacy"},
      {"measurement": "primary endpoint of improving episodic memory", "setting": "[3]; Phase 2", "result": "failed"},
      {"measurement": "tau in the cerebrospinal fluid", "setting": "[3]; Phase 2", "result": "reducing"},
      {"measurement": "Aβ deposition", "setting": "[3]; humans", "result": "no effect"}
    ]},
    {"smiles": "Cl.O=S(=O)(c1cccc2cnccc12)N1CCCNCC1", "note": "[fasudil, Hexahydro-1-(5-Isoquinolinesulfonyl)-1H-1,4-Diazepine Monohydrochloride Hemihydrate]", "values": [
      {"measurement": "latency distance and quadrant time in the Morris water maze", "setting": "[4]", "result": "improved"},
      {"measurement": "latency distance and quadrant time in the Morris water maze", "setting": "[5]", "result": "improved"},
      {"measurement": "spatial memory", "setting": "[6]", "result": "did not observe improvements"},
      {"measurement": "β-amyloid plaques in vivo", "setting": "[7]", "result": "reduce"}
    ]}
  ]
}
